Experimental data reported in ChEMBL document CHEMBL4043105, “Design and synthesis of potent and orally active GPR4 antagonists with modulatory effects on nociception, inflammation, and angiogenesis” (Bioorg Med Chem, 2017).

How the values were obtained:
in vivo [1] = conditions: Sprague-Dawley, rat, iv, 1 mg/kg
Rattus norvegicus [2] = organism: Rattus norvegicus; conditions: in vivo, po, 3 mg/kg
Rattus norvegicus [3] = organism: Rattus norvegicus; conditions: in vivo, po, 3 mg/kg; remark: listed apart in the source
in vivo [4] = conditions: Sprague-Dawley, rat, po, 3 mg/kg
in vivo [5] = conditions: Sprague-Dawley, rat, iv, 1 mg/kg; remark: listed apart in the source

For CCc1nc2c(C)cc(C)nc2n1Cc1ccc(/C=C/CN2CCN(C(C)C)CC2)cc1, the half-life (in vivo [1]) was 5.6 h, the Cmax/dose (Rattus norvegicus [2]) was 193 nM and the AUC/dose (Rattus norvegicus [3]) was 2196 µg·min/mL. The bioavailability (in vivo [4]) was 86% and the clearance (in vivo [5]) was 15 mL/min/kg.
